According to patent US5574070A, “Substituted guanidines having high binding to the sigma receptor and the use thereof” (priority 1993, dated 1996):
Counter-ions that a name gives are not always drawn. Like-named read-outs stand apart in the source and are kept apart here.

Key:
[1] = tested on: sigma receptor; assay: [3H]DTG displacement radioligand binding assay, guinea pig brain membranes
[2] = tested on: anxiety behavior of mice; assay: black:white test box (light/dark exploration) of mice; details: for anxiolytic activity: 1 mg/kg
[3] = target: [3H]MK-801; assay: [3H]MK-801 displacement binding; details: read-out: IC50 vs [3H]MK-801; Table II; ± s.e.m. (n)
[4] = Example 25, guinea pig brain membrane homogenates, read-out: IC50 binding values
[5] = list of especially preferred compounds, read-out: IC50 (high binding to the sigma receptor)
[6] = read-out: IC50 vs [3H]DTG, Table I, guinea pig brain membranes
[7] = read-out: IC50 vs [3H]DTG, Table II, ± s.e.m. (n)

Structure (SMILES)	IC50 [1, 4] [nM]	IC50 [1, 5] [nM]	IC50 [1, 6] [nM]	in vitro [3H]DTG displacement activity [1]	latency to entering the dark compartment ([2]; s.c.)	numbers of line crossings and/or rears in the light compartment (vs dark) ([2]; s.c.)	sedation: total numbers of rears and line crossings ([2]; s.c.)	latency to entering the dark compartment ([2]; oral)	numbers of line crossings and/or rears in the light compartment (vs dark) ([2]; oral)	sedation: total numbers of rears and line crossings ([2]; oral)	other results
N=C(Nc1ccccc1I)Nc1ccccc1C=Cc1ccccc1 [N-(2-styrylphenyl)-N'-(2-iodophenyl)guanidine]											latency to entering the dark compartment ([2]; i.p.): decreased the latency to entering the dark compartment; numbers of line crossings and/or rears in the light compartment ([2]; i.p.): did not affect the numbers of line crossings or rears in the light compartment; proportion of time in light area / percentage of time in black compartment ([2]; i.p.): No significant change in the percentage time in the black compartment
N=C(NC12CC3CC(CC(C3)C1)C2)NC12CC3CC(CC(C3)C1)C2 [DAG, N,N'-di-(adamantan-1-yl)guanidine]	11.8 ± 3.4	16.5	17 ± 3	found to possess the aforesaid in vitro [^3 H]DTG displacement activity		increased at the expense of those in the dark compartment	did not decrease significantly showing that the drug was not sedative at this level	increase in the latency to entering the dark compartment	increase in the numbers of line crossings and rears in the light compartment	did not decrease significantly	anxiolytic activity ([2]; oral): have anxiolytic activity when orally administered; proportion of time spent in the lighted area ([2]; s.c.): tended to increase the proportion of time the mice spent in the larger, lighted area
N=C(Nc1ccccc1I)Nc1cccc2ccccc12 [N-(1-Naphthyl)-N'-(2-iodophenyl)-guanidine]		40.1									IC50 [3]: 209 nM; IC50 [1, 7]: 40.1 nM
Cc1ccccc1NC(=N)NC1CCCCC1 [N-Cyclohexyl-N'-(2-methylphenyl)guanidine]	13 ± 1	13	17 ± 5	found to possess the aforesaid in vitro [^3 H]DTG displacement activity	increase in the latency to entering the dark compartment	increased in a dose-dependent manner at the expense of those in the dark compartment	did not decrease significantly, showing that the drug was not sedative	slight increase in the latency to entering the dark compartment	increase in the total numbers of rears in the light compartment	did not change significantly, showing that the compound was not sedative	proportion of time in light area / percentage of time in black compartment ([2]; oral): significant decrease in the percentage of time in the black compartment; proportion of time spent in the lighted area ([2]; s.c.): increases significantly the proportion of time the mice spent in the larger, lighted area
Cc1ccccc1NC(=N)N[C@H]1C[C@@H]2CC[C@H]1C2 (relative stereo) [N-(exo-2-norbornyl)-N'-(2-methylphenyl)guanidine]		7			increase in the latency to entering the dark compartment when administered at 0.1 mg/kg	increase in the number of rears in the light compartment	did not decrease significantly, showing that the drug was not sedative	increase in the latency to entering the dark compartment	increase in the number of rears in the light compartment	did not decrease significantly, showing that the drug was not sedative	proportion of time in light area / percentage of time in black compartment ([2]; oral): decrease in the percentage time spent in the black compartment
CC12CC3CC(C)(C1)CC(/N=C(\N)Nc1ccccc1/C=C/c1ccccc1)(C3)C2 [Example F-114-B, N-(3,5-dimethyladamantan-1-yl)-N'-[(E)-2-phenylethenyl]phenylguanidine]							did not decrease significantly showing that the drug was not sedative at this level				
Cc1cc(I)ccc1NC(=N)Nc1ccc(I)cc1C [N,N'-di-(2-methyl-4-iodophenyl)guanidine]				found to possess the aforesaid in vitro [^3 H]DTG displacement activity							

The next lines start with results.

IC50 [1, 4] [nM]	IC50 [1, 5] [nM]	IC50 [1, 6] [nM]	Structure (SMILES)	in vitro [3H]DTG displacement activity [1]	latency to entering the dark compartment ([2]; s.c.)	numbers of line crossings and/or rears in the light compartment (vs dark) ([2]; s.c.)	sedation: total numbers of rears and line crossings ([2]; s.c.)	latency to entering the dark compartment ([2]; oral)	numbers of line crossings and/or rears in the light compartment (vs dark) ([2]; oral)	sedation: total numbers of rears and line crossings ([2]; oral)	other results
12.5 ± 2.2	12.5	13 ± 2	N=C(NC1CCCCC1)NC12CC3CC(CC(C3)C1)C2 [AdChG, N, Adamantan-1-yl-N'-cyclohexylguanidine HCl]	found to possess the aforesaid in vitro [^3 H]DTG displacement activity	dose-dependent increase in the latency to entering the dark compartment	increase in the number of rears in the light compartment	did not change significantly, showing that the drug was not sedative				
	5		N=C(Nc1ccccc1I)N[C@@H]1C[C@@H]2CC[C@H]1C2 (relative stereo) [N-((±)-endo-2-norbornyl)-N'-(2-iodophenyl)guanidine]		dose-dependent increase in the latency to entering the dark compartment	significant dose-dependent increase in the number of rears in the light compartment	did not decrease significantly, showing that the drug was not sedative	increase in the latency to entering the dark compartment	increase in the number of rears in the light compartment	did not decrease significantly, showing that the drug was not sedative	proportion of time in light area / percentage of time in black compartment ([2]; oral): decrease in the percentage time spent in the black compartment
6.2 ± 0.7	6.2	5 ± 1	Cl.N=C(Nc1ccccc1I)NC12CC3CC(CC(C3)C1)C2 [AdIpG, N-(Adamantan-1-yl)-N'-(2-iodophenyl)guanidine HCl]	found to possess the aforesaid in vitro [^3 H]DTG displacement activity	increased in a dose-dependent manner	increased at the expense of those in the dark compartment	did not decrease significantly showing that the drug was not sedative at this level	increase in the latency to entering the dark compartment	increase in the numbers of line crossings and rears in the light compartment	did not decrease significantly	anxiolytic activity ([2]; oral): have anxiolytic activity when orally administered; proportion of time spent in the lighted area ([2]; s.c.): increased, in a dose-dependent manner, the proportion of time the mice spent in the larger, lighted area
	22.6		Cc1ccccc1N(C)C(=N)NC12CC3CC(CC(C3)C1)C2 [N-(Adamantan-1-yl)-N'-(2-methylphenyl)-N'-methyl-guanidine]								IC50 [1, 7]: 22.6 nM
24	24		CC(C)c1ccccc1NC(=N)NC12CC3CC(CC(C3)C1)C2 [N-(adamant-1-yl)-N'-(o-isopropylphenyl)guanidine]	found to possess the aforesaid in vitro [^3 H]DTG displacement activity							
